≈ marks a conversion by molar mass, not a printed value.
How the values were obtained:
MG-63 = assay: In vitro anti-proliferative activity against human tumor cell lines (MG-63); type: cell-based; details: MG-63, Osteogenic sarcoma, 72 hours
Procedure: (§1) In vitro anti-proliferative activity against human tumor cell lines
(§2) Test Compound: 5-ethynyl-1-β-D-ribofuranosylimidazole-4-carboxamide
(§3) A variety of human tumor cell lines are suspended in media specified according to the species of the cell lines to predetermined cell concentrations as shown in the following Table.
(§4) 1 ml of the resulting cell suspension is seeded into each well of a 24 multi-well plate and incubated in a 5% CO2 -incubator at 37° C. for 24 hours. The culture medium is then replaced by a medium containing no test compound or by an appropriate amount of a serially diluted test compound solution. […] The number of the cells in each well is counted with a Coulter counter (Model ZB, Coulter Electronics), and the growth inhibition percent (%) of the cells at each concentration of a test compound is determined by the following equation: [formula] Tx: Number of the cells in a well containing a test compound as counted upon completion of the incubation (cells/ml) […] Cx: Number of the cells in a well containing no test compound as counted upon completion of the incubation (cells/ml)
(§5) Co: Number of the cells in a well containing no test compound as counted at the initiation of the incubation (cells/ml) […]

KB = assay: In vitro anti-proliferative activity against human tumor cell lines (KB); type: cell-based; details: Nasopharyngeal carcinoma, 72 hours
Procedure: as §1, §2, §3, §4, §5

KU-2 = assay: In vitro anti-proliferative activity against human tumor cell lines (KU-2); type: cell-based; details: KU-2, Renal cell carcinoma, 72 hours
Procedure: as §1, §2, §3, §4, §5

SK-MES-1 = assay: In vitro anti-proliferative activity against human tumor cell lines (SK-MES-1); type: cell-based; details: SK-MES-1, Lung Squamous carcinoma, 72 hours
Procedure: as §1, §2, §3, §4, §5

A549 = assay: In vitro anti-proliferative activity against human tumor cell lines (A549); type: cell-based; details: A549, Lung carcinoma, 72 hours
Procedure: as §1, §2, §3, §4, §5

U-2OS = assay: In vitro anti-proliferative activity against human tumor cell lines (U-2OS); type: cell-based; details: U2OS, Osteogenic sarcoma, 72 hours
Procedure: as §1, §2, §3, §4, §5

HeLa = assay: In vitro anti-proliferative activity against human tumor cell lines (HeLa); type: cell-based; details: Cervical carcinoma, 72 hours
Procedure: as §1, §2, §3, §4, §5

HEp-2 = assay: In vitro anti-proliferative activity against human tumor cell lines (HEp-2); type: cell-based; details: HEp-2, Laryngeal carcinoma, 72 hours
Procedure: as §1, §2, §3, §4, §5

[1] = test system: human gastric cancer cells, 4-1ST; assay: In vivo antitumor activity against human gastric cancer cells, 4-1ST, subcutaneously implanted into nude mice; details: for Body weight / T/C (%) / Tumor growth rate (Rt): 125 mg/kg i.v. days 10, 14, 18
Procedure: In vivo antitumor activity against human gastric cancer cells, 4-1ST, subcutaneously implanted into nude mice
Human gastric cancer cells, 4-1ST(ca. 8 mm^3), are subcutaneously implanted at the ventral site of nude mice (BALB/c-nu/nu, female, 5 weeks old). Ten days after the implantation when the tumor volume reaches 150 to 300 mm^3, the mice are divided into groups (6 mice/group), and the treatment with a test drug was started.
5-Ethynyl-1-β-D-ribofuranosylimidazole-4-carboxamide is dissolved in distilled water and intravenously administered to the mice at a dose of 125 mg/kg on days 10, 14 and 18 after the implantation of the tumor, the volume of the drug solution being 0.1 ml per 10 g of the body weight of the mouse.
Each mouse is weighed, and width (a mm) and length (b mm) of the tumor thereof are measured twice a week to determine the tumor volume (A mm^3) from the following equation: […]
Subsequently, the tumor growth rate (R) is determined as follows on the basis of the tumor volume (A10) on day 10 after the implantation of the tumor cells:
R: Tumor growth rate after a predetermined period from the tumor implantation
A: Tumor volume after a predetermined period from the tumor implantation
A10 : Tumor volume as determined 10 days after the tumor implantation
T/C (%) is further obtained from the following equation by comparison between the tumor growth rate in the test group (Rt) and that in the control group (Rc):
Test group: 125 mg/kg of the drug was intravenously administered on days
10, 14 and 18 after the tumor implantation.

[2] = day 22, * = P < 0.05 vs control
[3] = day 25, * = P < 0.05 vs control

IC50 (MG-63): 0.38 µg/mL (≈ 1.42 µM)
IC50 (KB): 0.33 µg/mL (≈ 1.23 µM)
IC50 (KU-2): < 0.1 µg/mL
IC50 (SK-MES-1): 0.26 µg/mL (≈ 0.973 µM)
IC50 (A549): 0.37 µg/mL (≈ 1.38 µM)
IC50 (U-2OS): 0.62 µg/mL (≈ 2.32 µM)
IC50 (HeLa): 0.3 µg/mL (≈ 1.12 µM)
IC50 (HEp-2): 0.47 µg/mL (≈ 1.76 µM)
Compound: C#Cc1c(C(N)=O)ncn1[C@@H]1O[C@H](CO)[C@@H](O)[C@H]1O [5-ethynyl-1-β-D-ribofuranosylimidazole-4-carboxamide]
antitumor activity ([1]; 125 mg/kg every 4 days 3 times in total, i.v.): remarkable antitumor activity
Body weight ([1]; day 10 after implantation): 20 g
T/C (%) ([1]; day 10 after implantation): 100%
Tumor growth rate (Rt) ([1]; day 10 after implantation): 1.0
Body weight ([1]; day 14): 21 g
T/C (%) ([1]; day 14): 67%
Tumor growth rate (Rt) ([1]; day 14): 3.0
Body weight ([1]; day 17): 21 g
T/C (%) ([1]; day 17): 67%
Tumor growth rate (Rt) ([1]; day 17): 5.1
Body weight ([1]; day 22): 22 g
T/C (%) [1, 2]: 60%
Tumor growth rate (Rt) [1, 2]: 8.0
Body weight ([1]; day 25): 23 g
T/C (%) [1, 3]: 63%
Tumor growth rate (Rt) [1, 3]: 12
Body weight ([1]; day 28): 23 g
T/C (%) ([1]; day 28): 67%
Tumor growth rate (Rt) ([1]; day 28): 16
Body weight ([1]; day 31): 24 g
T/C (%) ([1]; day 31): 71%
Tumor growth rate (Rt) ([1]; day 31): 20
Body weight ([1]; day 35): 23 g
T/C (%) ([1]; day 35): 77%
Tumor growth rate (Rt) ([1]; day 35): 30
